16 compounds from US20230192676A1, “Heterocyclic Amides as Kinase Inhibitors” (GLAXOSMITHKLINE INTELLECTUAL PROPERTY DEVELOPMENT LIMITED, priority 2017, published 2023) can be followed below.

For the assay, the system named is U937 cells. In words: necroptosis assay in human monocytic leukemia U937 cells (Cell Titer-Glo ATP viability readout). The assay is classed as cell-based. Conditions: U-937, viability by cellular ATP (Cell Titer-Glo), values approximate, read-out: pIC50, inhibition of necrosis in U937 cells (converted). As to the method:
The efficacy of RIP1 inhibitors can be tested in […] in vitro using a human monocytic leukemia U937 in a necroptosis assay. As determined using the method described in S. He et al., Cell, 137(6):1100-1111 (2009) and International Patent Appln. No. PCT/IB2014/059004, now, International Patent Appln. Pub.
Viability was measured by quantitating cellular levels of ATP using the Cell Titer-Glo kit. All data are means±standard deviation of the mean.
Background: In ATP-based viability assays light output follows the ATP content of the culture.
Consider `CC(=O)N1CCC(C(=O)N2OCC[C@H]2c2cc(F)cc(F)c2)CC1` [Example 2, (S)-1-(4-(3-(3,5-difluorophenyl)isoxazolidine-2-carbonyl)piperidin-1-yl)ethan-1-one], for which the IC50 is 1 to 100 nM.

As for `NC(=O)c1cc(N2CCC(C(=O)N3OCC[C@H]3c3cc(F)cc(F)c3)CC2)ncn1` [Example 4, (S)-6-(4-(3-(3,5-difluorophenyl)isoxazolidine-2-carbonyl)piperidin-1-yl)pyrimidine-4-carboxamide], the IC50 was 1 to 100 nM.

In the case of `Cc1nnc(N2CCC(C(=O)N3OCC[C@H]3c3cc(F)cc(F)c3)CC2)o1` [Example 5, (S)-(3-(3,5-difluorophenyl)isoxazolidin-2-yl)(1-(5-methyl-1,3,4-oxadiazol-2-yl)piperidin-4-yl)methanone], the IC50 is 1 to 100 nM.

Regarding `N#Cc1cc(N2CCC(C(=O)N3OCC[C@H]3c3cc(F)cc(F)c3)CC2)ncn1` [Example 8, (S)-6-(4-(3-(3,5-difluorophenyl)isoxazolidine-2-carbonyl)piperidin-1-yl)pyrimidine-4-carbonitrile], the IC50 is 1 to 100 nM.

Consider `CNC(=O)c1cc(N2CCC(C(=O)N3OCC[C@H]3c3cc(F)cc(F)c3)CC2)ncn1` [Example 9, (S)-6-(4-(3-(3,5-difluorophenyl)isoxazolidine-2-carbonyl)piperidin-1-yl)-N-methylpyrimidine-4-carboxamide], for which the IC50 is 1 to 100 nM.

`CN(C)C(=O)c1cc(N2CCC(C(=O)N3OCC[C@H]3c3cc(F)cc(F)c3)CC2)ncn1` [Example 10, (S)-6-(4-(3-(3,5-difluorophenyl)isoxazolidine-2-carbonyl)piperidin-1-yl)-N,N-dimethylpyrimidine-4-carboxamide]: the IC50 was 1 to 100 nM.

For the compound `Cc1nnc(N2CC[C@H](C(=O)N3OCC[C@@H]3c3cc(F)cc(F)c3)[C@H](F)C2)o1` [Example 16, ((R)-3-(3,5-difluorophenyl)isoxazolidin-2-yl)((3S,4R)-3-fluoro-1-(5-methyl-1,3,4-oxadiazol-2-yl)piperidin-4-yl)methanone], the IC50 was 1 to 100 nM.

As to `Cc1nnc(N2CC[C@@H](C(=O)N3OCC[C@@H]3c3cc(F)cc(F)c3)[C@@H](F)C2)o1` [Example 18, ((R)-3-(3,5-difluorophenyl)isoxazolidin-2-yl)((3R,4S)-3-fluoro-1-(5-methyl-1,3,4-oxadiazol-2-yl)piperidin-4-yl)methanone], the IC50 was 1 to 100 nM.

For `O=C([C@H]1CCN(c2nnco2)C[C@H]1F)N1OCC[C@@H]1c1cc(F)cc(F)c1` [Example 22, ((R)-3-(3,5-difluorophenyl)isoxazolidin-2-yl)((3S,4R)-3-fluoro-1-(1,3,4-oxadiazol-2-yl)piperidin-4-yl)methanone], the IC50 was 1 to 100 nM.

As for `NC(=O)c1cc(N2CC[C@H](C(=O)N3OCC[C@@H]3c3cc(F)cc(F)c3)[C@H](F)C2)ncn1` [Example 26, 6-((3S,4R)-4-((R)-3-(3,5-difluorophenyl)isoxazolidine-2-carbonyl)-3-fluoropiperidin-1-yl)pyrimidine-4-carboxamide], the IC50 is 1 to 100 nM.

For the compound `CNC(=O)c1cc(N2CC[C@H](C(=O)N3OCC[C@@H]3c3cc(F)cc(F)c3)[C@H](F)C2)ncn1` [Example 30, 6-((3S,4R)-4-((R)-3-(3,5-difluorophenyl)isoxazolidine-2-carbonyl)-3-fluoropiperidin-1-yl)-N-methylpyrimidine-4-carboxamide], the IC50 was 1 to 100 nM.

With `CNC(=O)c1cc(N2CC[C@@H](C(=O)N3OCC[C@@H]3c3cc(F)cc(F)c3)[C@@H](F)C2)ncn1` [Example 32, 6-((3R,4S)-4-((R)-3-(3,5-difluorophenyl)isoxazolidine-2-carbonyl)-3-fluoropiperidin-1-yl)-N-methylpyrimidine-4-carboxamide], the IC50 is 1 to 100 nM.

Consider `CN(C)C(=O)c1cc(N2CC[C@H](C(=O)N3OCC[C@@H]3c3cc(F)cc(F)c3)[C@H](F)C2)ncn1` [Example 34, 6-((3S,4R)-4-((R)-3-(3,5-difluorophenyl)isoxazolidine-2-carbonyl)-3-fluoropiperidin-1-yl)-N,N-dimethylpyrimidine-4-carboxamide], for which the IC50 is 1 to 100 nM.

In the case of `CN(C)C(=O)c1cc(N2CC[C@H](C(=O)N3OCC[C@H]3c3cc(F)cc(F)c3)[C@H](F)C2)ncn1` [Example 35, 6-((3S,4R)-4-((S)-3-(3,5-difluorophenyl)isoxazolidine-2-carbonyl)-3-fluoropiperidin-1-yl)-N,N-dimethylpyrimidine-4-carboxamide], the IC50 was 1 to 100 nM.

On to `C[S@@+]([O-])c1cc(N2CC[C@H](C(=O)N3OCC[C@@H]3c3cc(F)cc(F)c3)[C@H](F)C2)ncn1` [Example 44, ((R)-3-(3,5-difluorophenyl)isoxazolidin-2-yl)((3S,4R)-3-fluoro-1-(6-((R)-methylsulfinyl)pyrimidin-4-yl)piperidin-4-yl)methanone], for which the IC50 was 1 to 100 nM.

Regarding `C[S@+]([O-])c1cc(N2CC[C@@H](C(=O)N3OCC[C@@H]3c3cc(F)cc(F)c3)[C@@H](F)C2)ncn1` [Example 46, ((R)-3-(3,5-difluorophenyl)isoxazolidin-2-yl)((3R,4S)-3-fluoro-1-(6-((S)-methylsulfinyl)pyrimidin-4-yl)piperidin-4-yl)methanone], the IC50 was 1 to 100 nM.
